# What was measured:
# Homo sapiens [1] = species: Homo sapiens; note: assay method not described here
# [2] = molecular target: Adenosylhomocysteinase (Homo sapiens) (UniProt P23526); note: assay method not described here
# [3] = molecular target: Protein transport protein Sec23B (Homo sapiens) (UniProt Q15437); note: assay method not described here
# Homo sapiens [4] = species: Homo sapiens; remark: listed apart in the source; note: assay method not described here
# Ephrin type-A receptor 7 = Ephrin type-A receptor 7 (Homo sapiens, UniProt Q15375); assay: Inhibition of Nano Luc-fused full length C-terminal EPHA7 (unknown origin) expressed in HEK293T cells using NanoGlo as substrate incubated for 2 hrs in presence of tracer by NanoBRET assay; assay type: cell-based
# Cyclin-T1 (Homo sapiens) = Cyclin-T1 (Homo sapiens) (UniProt O60563); note: assay method not described here
# Chain of Cyclin-T1 (Homo sapiens) (O60563 whole entry): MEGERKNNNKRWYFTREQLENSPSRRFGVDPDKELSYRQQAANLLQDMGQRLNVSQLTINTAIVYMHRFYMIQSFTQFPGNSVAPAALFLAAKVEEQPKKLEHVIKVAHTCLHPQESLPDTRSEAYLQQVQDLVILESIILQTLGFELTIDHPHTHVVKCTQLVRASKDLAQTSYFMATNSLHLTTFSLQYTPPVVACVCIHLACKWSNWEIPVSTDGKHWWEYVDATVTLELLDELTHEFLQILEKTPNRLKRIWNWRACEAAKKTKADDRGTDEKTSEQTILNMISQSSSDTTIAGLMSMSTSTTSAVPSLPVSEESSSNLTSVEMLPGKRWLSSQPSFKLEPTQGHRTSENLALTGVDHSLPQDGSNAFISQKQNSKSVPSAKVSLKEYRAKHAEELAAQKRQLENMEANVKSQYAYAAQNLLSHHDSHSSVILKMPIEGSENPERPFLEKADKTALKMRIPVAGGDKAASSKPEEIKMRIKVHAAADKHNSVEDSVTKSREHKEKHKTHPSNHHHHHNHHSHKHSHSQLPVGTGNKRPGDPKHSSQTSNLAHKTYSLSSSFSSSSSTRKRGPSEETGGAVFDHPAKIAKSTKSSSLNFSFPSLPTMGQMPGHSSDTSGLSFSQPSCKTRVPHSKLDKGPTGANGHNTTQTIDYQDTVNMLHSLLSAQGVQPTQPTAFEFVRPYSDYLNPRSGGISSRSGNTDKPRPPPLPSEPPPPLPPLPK
# [5] = molecular target: DAZ-associated protein 1 (Homo sapiens) (UniProt Q96EP5); note: assay method not described here
# [6] = molecular target: Tyrosine-protein kinase Yes (Homo sapiens) (UniProt P07947); note: assay method not described here
# Chain of Tyrosine-protein kinase Yes (Homo sapiens) (P07947 2-543 limits assumed): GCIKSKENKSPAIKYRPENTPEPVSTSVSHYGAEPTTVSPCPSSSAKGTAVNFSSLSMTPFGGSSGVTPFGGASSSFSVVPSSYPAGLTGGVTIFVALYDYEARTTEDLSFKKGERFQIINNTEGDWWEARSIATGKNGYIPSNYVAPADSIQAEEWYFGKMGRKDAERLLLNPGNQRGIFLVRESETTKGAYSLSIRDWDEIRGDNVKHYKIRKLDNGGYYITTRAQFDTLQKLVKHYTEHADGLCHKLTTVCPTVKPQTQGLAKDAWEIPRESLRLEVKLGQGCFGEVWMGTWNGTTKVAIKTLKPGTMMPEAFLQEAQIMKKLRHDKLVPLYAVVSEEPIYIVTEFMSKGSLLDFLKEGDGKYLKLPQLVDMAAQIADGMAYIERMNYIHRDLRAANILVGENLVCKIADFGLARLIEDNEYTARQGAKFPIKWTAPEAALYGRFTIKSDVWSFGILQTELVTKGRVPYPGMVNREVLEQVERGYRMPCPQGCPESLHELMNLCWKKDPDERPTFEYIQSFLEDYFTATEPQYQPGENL
# [7] = molecular target: Membrane-bound acylglycerophosphatidylinositol O-acyltransferase MBOAT7 (Homo sapiens) (UniProt Q96N66); note: assay method not described here
# [8] = molecular target: 26S proteasome non-ATPase regulatory subunit 3 (Homo sapiens) (UniProt O43242); note: assay method not described here
# [9] = molecular target: ATP synthase peripheral stalk subunit d, mitochondrial (Homo sapiens) (UniProt O75947); note: assay method not described here
# [10] = molecular target: Large ribosomal subunit protein uL24 (Homo sapiens) (UniProt P61254); note: assay method not described here
# [11] = molecular target: RNA-binding protein RO60 (Homo sapiens) (UniProt P10155); note: assay method not described here
# [12] = molecular target: Glycogen phosphorylase, brain form (Homo sapiens) (UniProt P11216); note: assay method not described here
# [13] = molecular target: NADH dehydrogenase [ubiquinone] iron-sulfur protein 7, mitochondrial (Homo sapiens) (UniProt O75251); note: assay method not described here
# [14] = molecular target: Serine/threonine-protein kinase/endoribonuclease IRE2 (Homo sapiens) (UniProt Q76MJ5); note: assay method not described here
# [15] = molecular target: Vacuolar protein sorting-associated protein 35 (Homo sapiens) (UniProt Q96QK1); note: assay method not described here
# [16] = molecular target: Deoxycytidine kinase (Homo sapiens) (UniProt P27707); note: assay method not described here
# Chain of Deoxycytidine kinase (Homo sapiens) (P27707 whole entry, looked up): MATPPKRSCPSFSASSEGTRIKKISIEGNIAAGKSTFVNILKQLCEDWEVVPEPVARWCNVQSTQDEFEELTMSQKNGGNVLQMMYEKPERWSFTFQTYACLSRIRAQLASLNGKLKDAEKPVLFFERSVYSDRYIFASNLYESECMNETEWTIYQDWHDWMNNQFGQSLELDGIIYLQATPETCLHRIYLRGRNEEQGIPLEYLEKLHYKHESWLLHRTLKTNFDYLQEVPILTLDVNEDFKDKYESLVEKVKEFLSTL
# [17] = molecular target: Small ribosomal subunit protein uS17 (Homo sapiens) (UniProt P62280); note: assay method not described here
# [18] = molecular target: Transportin-3 (Homo sapiens) (UniProt Q9Y5L0); note: assay method not described here
# [19] = molecular target: Rho-associated protein kinase 1 (Homo sapiens) (UniProt Q13464); note: assay method not described here
# [20] = molecular target: ATP synthase F(1) complex subunit beta, mitochondrial (Homo sapiens) (UniProt P06576); note: assay method not described here
# [21] = molecular target: Polypyrimidine tract-binding protein 1 (Homo sapiens) (UniProt P26599); note: assay method not described here
# [22] = molecular target: Cyclin-dependent kinase 4 (Homo sapiens) (UniProt P11802); note: assay method not described here
# Chain of Cyclin-dependent kinase 4 (Homo sapiens) (P11802 whole entry): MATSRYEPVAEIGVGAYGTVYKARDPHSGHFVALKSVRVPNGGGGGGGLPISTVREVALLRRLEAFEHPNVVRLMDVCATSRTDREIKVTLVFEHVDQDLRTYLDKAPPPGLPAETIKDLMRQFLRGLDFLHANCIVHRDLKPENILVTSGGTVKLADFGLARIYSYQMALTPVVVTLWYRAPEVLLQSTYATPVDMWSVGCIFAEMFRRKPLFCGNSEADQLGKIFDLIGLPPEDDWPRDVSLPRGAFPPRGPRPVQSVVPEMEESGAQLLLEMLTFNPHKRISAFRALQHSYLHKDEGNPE
# [23] = molecular target: Adenosine 5'-monophosphoramidase HINT1 (Homo sapiens) (UniProt P49773); note: assay method not described here
# Chain of Adenosine 5'-monophosphoramidase HINT1 (Homo sapiens) (P49773 whole entry): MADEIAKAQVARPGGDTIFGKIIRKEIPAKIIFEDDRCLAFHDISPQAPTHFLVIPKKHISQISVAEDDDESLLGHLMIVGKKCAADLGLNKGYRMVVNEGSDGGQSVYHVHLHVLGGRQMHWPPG
# [24] = molecular target: Importin subunit alpha-1 (Homo sapiens) (UniProt P52292); note: assay method not described here
# [25] = molecular target: Proliferating cell nuclear antigen (Homo sapiens) (UniProt P12004); note: assay method not described here
# Chain of Proliferating cell nuclear antigen (Homo sapiens) (P12004 whole entry): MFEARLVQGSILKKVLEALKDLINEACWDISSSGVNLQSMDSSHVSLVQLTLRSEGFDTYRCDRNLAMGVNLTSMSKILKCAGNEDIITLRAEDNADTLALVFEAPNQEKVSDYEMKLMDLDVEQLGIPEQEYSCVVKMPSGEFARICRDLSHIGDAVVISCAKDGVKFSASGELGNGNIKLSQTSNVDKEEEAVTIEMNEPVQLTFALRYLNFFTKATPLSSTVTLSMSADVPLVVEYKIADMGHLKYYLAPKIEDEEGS
# [26] = molecular target: Protein mono-ADP-ribosyltransferase PARP16 (Homo sapiens) (UniProt Q8N5Y8); note: assay method not described here
# [27] = molecular target: Exportin-2 (Homo sapiens) (UniProt P55060); note: assay method not described here
# [28] = molecular target: Very-long-chain 3-oxoacyl-CoA reductase (Homo sapiens) (UniProt Q53GQ0); note: assay method not described here
# Ephrin type-A receptor 5 = Ephrin type-A receptor 5 (Homo sapiens, UniProt P54756); assay: Inhibition of Nano Luc-fused full length C-terminal EPHA5 (unknown origin) expressed in HEK293T cells using NanoGlo as substrate incubated for 2 hrs in presence of tracer by NanoBRET assay; assay type: cell-based
# [29] = molecular target: Heterogeneous nuclear ribonucleoprotein H (Homo sapiens) (UniProt P31943); note: assay method not described here
# [30] = molecular target: Interleukin-1 receptor-associated kinase 1 (Homo sapiens) (UniProt P51617); note: assay method not described here
# Chain of Interleukin-1 receptor-associated kinase 1 (Homo sapiens) (P51617 whole entry, looked up, canonical isoform): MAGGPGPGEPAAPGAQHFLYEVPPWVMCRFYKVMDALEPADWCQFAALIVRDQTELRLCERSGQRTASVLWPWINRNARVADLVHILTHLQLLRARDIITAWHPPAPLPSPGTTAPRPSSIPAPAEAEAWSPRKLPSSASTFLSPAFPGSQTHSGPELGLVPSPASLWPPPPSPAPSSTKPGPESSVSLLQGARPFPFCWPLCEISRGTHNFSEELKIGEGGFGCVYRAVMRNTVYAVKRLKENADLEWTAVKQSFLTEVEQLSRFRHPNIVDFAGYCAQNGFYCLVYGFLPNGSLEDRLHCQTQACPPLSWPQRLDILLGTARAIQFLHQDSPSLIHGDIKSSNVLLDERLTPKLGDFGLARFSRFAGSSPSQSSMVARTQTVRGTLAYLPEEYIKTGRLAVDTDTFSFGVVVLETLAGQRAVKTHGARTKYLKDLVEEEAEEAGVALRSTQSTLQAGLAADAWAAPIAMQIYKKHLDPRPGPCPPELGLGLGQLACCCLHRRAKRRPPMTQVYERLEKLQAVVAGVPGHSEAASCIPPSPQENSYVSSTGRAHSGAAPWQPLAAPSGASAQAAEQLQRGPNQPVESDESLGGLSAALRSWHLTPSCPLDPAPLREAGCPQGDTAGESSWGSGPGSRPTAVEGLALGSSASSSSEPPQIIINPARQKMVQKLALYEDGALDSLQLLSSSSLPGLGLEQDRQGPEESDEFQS
# [31] = molecular target: Spliceosome RNA helicase DDX39B (Homo sapiens) (UniProt Q13838); note: assay method not described here
# [32] = molecular target: 26S proteasome regulatory subunit 6B (Homo sapiens) (UniProt P43686); note: assay method not described here
# [33] = molecular target: Large ribosomal subunit protein uL11 (Homo sapiens) (UniProt P30050); note: assay method not described here
# [34] = molecular target: F-actin-capping protein subunit alpha-2 (Homo sapiens) (UniProt P47755); note: assay method not described here
# [35] = molecular target: Hexokinase-1 (Homo sapiens) (UniProt P19367); note: assay method not described here
# [36] = molecular target: Serine/threonine-protein kinase TAO3 (Homo sapiens) (UniProt Q9H2K8); note: assay method not described here
# [37] = molecular target: Mitogen-activated protein kinase kinase kinase 20 (Homo sapiens) (UniProt Q9NYL2); note: assay method not described here
# [38] = molecular target: Splicing factor 3B subunit 3 (Homo sapiens) (UniProt Q15393); note: assay method not described here
# Chain of Splicing factor 3B subunit 3 (Homo sapiens) (Q15393 whole entry): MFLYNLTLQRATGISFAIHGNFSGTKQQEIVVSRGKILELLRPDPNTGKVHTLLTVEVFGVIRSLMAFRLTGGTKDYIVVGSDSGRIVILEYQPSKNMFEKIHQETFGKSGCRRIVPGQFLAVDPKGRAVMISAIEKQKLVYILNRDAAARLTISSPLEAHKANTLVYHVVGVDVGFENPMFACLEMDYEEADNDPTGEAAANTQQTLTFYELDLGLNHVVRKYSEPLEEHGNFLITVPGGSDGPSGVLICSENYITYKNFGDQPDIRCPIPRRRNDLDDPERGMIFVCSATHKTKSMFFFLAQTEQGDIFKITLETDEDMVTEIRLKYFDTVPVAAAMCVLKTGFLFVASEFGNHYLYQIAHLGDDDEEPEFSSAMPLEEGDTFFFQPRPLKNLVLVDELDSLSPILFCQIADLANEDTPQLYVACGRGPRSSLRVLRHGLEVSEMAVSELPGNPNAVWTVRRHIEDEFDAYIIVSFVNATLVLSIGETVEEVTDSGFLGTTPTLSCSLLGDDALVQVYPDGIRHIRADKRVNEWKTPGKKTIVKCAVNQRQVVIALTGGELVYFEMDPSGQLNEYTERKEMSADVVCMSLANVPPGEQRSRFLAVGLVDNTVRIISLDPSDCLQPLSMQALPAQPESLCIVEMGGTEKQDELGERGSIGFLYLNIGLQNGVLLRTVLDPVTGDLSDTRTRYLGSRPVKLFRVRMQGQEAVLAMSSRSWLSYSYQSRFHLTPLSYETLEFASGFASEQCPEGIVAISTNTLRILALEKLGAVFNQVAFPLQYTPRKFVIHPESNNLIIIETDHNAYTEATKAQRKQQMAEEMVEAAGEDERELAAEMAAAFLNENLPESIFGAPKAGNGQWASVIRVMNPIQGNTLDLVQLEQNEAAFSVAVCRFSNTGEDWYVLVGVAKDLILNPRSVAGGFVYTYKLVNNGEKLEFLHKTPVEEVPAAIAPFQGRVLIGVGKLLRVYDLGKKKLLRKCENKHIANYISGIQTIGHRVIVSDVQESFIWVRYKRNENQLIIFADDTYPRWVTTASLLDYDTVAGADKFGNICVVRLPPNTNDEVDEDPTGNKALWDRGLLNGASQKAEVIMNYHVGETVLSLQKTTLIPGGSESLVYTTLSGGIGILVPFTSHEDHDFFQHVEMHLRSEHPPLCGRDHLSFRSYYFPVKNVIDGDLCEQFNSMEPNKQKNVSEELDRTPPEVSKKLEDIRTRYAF
# [39] = molecular target: Dolichyl pyrophosphate Glc1Man9GlcNAc2 alpha-1,3-glucosyltransferase (Homo sapiens) (UniProt Q9BVK2); note: assay method not described here
# [40] = molecular target: Protein MAL2 (Homo sapiens) (UniProt Q969L2); note: assay method not described here
# [41] = molecular target: Kinetochore-associated protein 1 (Homo sapiens) (UniProt P50748); note: assay method not described here
# [42] = molecular target: Tryptophan--tRNA ligase, cytoplasmic (Homo sapiens) (UniProt P23381); note: assay method not described here
# Chain of Protein transport protein Sec23B (Homo sapiens) (Q15437 whole entry): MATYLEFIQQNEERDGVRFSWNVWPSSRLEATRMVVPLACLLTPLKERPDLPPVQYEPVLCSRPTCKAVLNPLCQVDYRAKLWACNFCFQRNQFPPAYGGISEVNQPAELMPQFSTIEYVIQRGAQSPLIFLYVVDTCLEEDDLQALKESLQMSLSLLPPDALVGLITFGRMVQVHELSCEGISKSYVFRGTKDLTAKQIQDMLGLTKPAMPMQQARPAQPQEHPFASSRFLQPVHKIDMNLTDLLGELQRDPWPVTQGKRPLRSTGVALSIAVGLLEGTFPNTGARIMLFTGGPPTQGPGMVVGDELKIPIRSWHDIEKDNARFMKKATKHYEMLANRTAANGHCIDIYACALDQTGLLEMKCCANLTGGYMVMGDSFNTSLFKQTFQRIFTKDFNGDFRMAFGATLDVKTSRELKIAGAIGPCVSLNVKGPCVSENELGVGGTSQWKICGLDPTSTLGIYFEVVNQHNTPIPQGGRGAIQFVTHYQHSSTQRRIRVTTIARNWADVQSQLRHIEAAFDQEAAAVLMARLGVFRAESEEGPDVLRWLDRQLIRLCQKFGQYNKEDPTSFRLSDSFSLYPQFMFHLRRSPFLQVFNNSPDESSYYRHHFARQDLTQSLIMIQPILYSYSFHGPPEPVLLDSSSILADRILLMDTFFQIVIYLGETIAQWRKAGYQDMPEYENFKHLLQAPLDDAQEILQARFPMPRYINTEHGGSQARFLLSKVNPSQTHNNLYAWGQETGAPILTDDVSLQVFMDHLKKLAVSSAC
smiles,measurement,setting,value
Cc1ccc(C(=O)Nc2cccc(C(F)(F)F)c2)cc1Nc1nc(-c2cccnc2)nc2nn(C)cc12,ED50,Homo sapiens [1],0.061 µM
same,ED50,[2],0.0533 µM
same,ED50,[3],0.0397 µM
same,ED50,Homo sapiens [4],13.1 µM
same,IC50,Ephrin type-A receptor 7,> 50 µM
same,ED50,Cyclin-T1 (Homo sapiens),0.0502 µM
same,ED50,[5],0.0265 µM
same,ED50,[6],3.56 µM
same,ED50,[7],0.202 µM
same,ED50,[8],0.0197 µM
same,ED50,[9],0.0557 µM
same,ED50,[10],0.0162 µM
same,ED50,[11],0.0205 µM
same,ED50,[12],7 µM
same,ED50,[13],1.81 µM
same,ED50,[14],1.71 µM
same,ED50,[15],0.0256 µM
same,ED50,[16],0.00309 µM
same,ED50,[17],0.0189 µM
same,ED50,[18],0.669 µM
same,ED50,[19],2.23 µM
same,ED50,[20],2.31 µM
same,ED50,[21],18.3 µM
same,ED50,[22],10.1 µM
same,ED50,[23],0.318 µM
same,ED50,[24],0.00566 µM
same,ED50,[25],0.502 µM
same,ED50,[26],22200 µM
same,ED50,[27],0.487 µM
same,ED50,[28],0.00539 µM
same,IC50,Ephrin type-A receptor 5,0.208 µM
same,ED50,[29],13.2 µM
same,ED50,[30],0.0479 µM
same,ED50,[31],0.957 µM
same,ED50,[32],0.508 µM
same,ED50,[33],0.0513 µM
same,ED50,[34],2.53 µM
same,ED50,[35],173 µM
same,ED50,[36],0.0641 µM
same,ED50,[37],7.75 µM
same,ED50,[38],6.08 µM
same,ED50,[39],72.9 µM
same,ED50,[40],1.68 µM
same,ED50,[41],0.0543 µM
same,ED50,[42],29.9 µM
Cc1ccc(C(=O)Nc2cccc(C(F)(F)F)c2)cc1Nc1nc(-c2cccnc2)nc2c1cnn2C,ED50,Homo sapiens [1],3.57 µM
same,ED50,[2],4.94 µM
same,ED50,[3],9.39 µM
same,ED50,Homo sapiens [4],8.11 µM
same,IC50,Ephrin type-A receptor 7,> 50 µM
same,ED50,Cyclin-T1 (Homo sapiens),0.0168 µM
same,ED50,[5],0.124 µM
same,ED50,[6],2.58 µM
same,ED50,[7],3.4 µM
same,ED50,[8],6.22 µM
same,ED50,[9],0.0727 µM
same,ED50,[10],6.18 µM
same,ED50,[11],2.18 µM
same,ED50,[12],0.0395 µM
same,ED50,[13],0.00309 µM
same,ED50,[14],2.7 µM
same,ED50,[15],15.7 µM
same,ED50,[16],5 µM
same,ED50,[17],0.0251 µM
same,ED50,[18],19 µM
same,ED50,[19],11 µM
same,ED50,[20],0.882 µM
same,ED50,[21],3.12 µM
same,ED50,[22],0.000606 µM
same,ED50,[23],0.00551 µM
same,ED50,[24],7.33 µM
same,ED50,[25],3.51 µM
same,ED50,[26],0.0016 µM
same,ED50,[27],1.94 µM
same,ED50,[28],0.0533 µM
same,IC50,Ephrin type-A receptor 5,0.0028 µM
same,ED50,[29],5.86 µM
same,ED50,[30],14.6 µM
same,ED50,[31],18.4 µM
same,ED50,[32],6.14 µM
same,ED50,[33],3.63 µM
same,ED50,[34],3.23 µM
same,ED50,[35],0.00555 µM
same,ED50,[36],5.85 µM
same,ED50,[37],0.907 µM
same,ED50,[38],13.9 µM
same,ED50,[39],0.0377 µM
same,ED50,[40],0.177 µM
same,ED50,[41],14 µM
same,ED50,[42],0.0163 µM

# — ChEMBL document CHEMBL5649169 (ChemMedChem, 2018)
